Results from the NIST ThermoML archive (doi:10.1021/acs.jced.5b00436).
Numbers after ± are expanded uncertainties.

Experiment: refractive index (Na D-line) (dimensionless)
Conditions: 293.15 K; 101.33 kPa; Liquid; Standard Abbe refractometry

| refractive index | SMILES |
| --- | --- |
| 1.3171 ± 0.0005 | OCC(F)(F)C(F)(F)C(F)(F)C(F)F [2,2,3,3,4,4,5,5-octafluoro-1-pentanol] |
| 1.3616 ± 0.0005 | CCO [ethanol] |
| 1.3328 ± 0.0005 | O [water] |
